Ends that are not written are not given here.
Tests used:
[1] = system: spleen cells from healthy mice; assay type: cell-based, mouse; details: up to the highest concentration tested, 20 h
Protocol: FIG. 1: RT53 treatment increases APL mice survival. (A) The indicated cells were left untreated or exposed to increasing concentrations of RT53 for 20 h. Cell death induced by peptide treatment was measured by lactate dehydrogenase (LDH) release. Data are means±s.e.m. (n=3). (B) APL spleen cells were exposed to 5 μM of RT53 in the presence or absence of 50 μM zVAD-fmk or 50 μM Necrostatin-1 (Nec-1) for 3 h. Necrotic cell death was monitored by lactate dehydrogenase (LDH) release from cells into the culture medium. The obtained values were normalized to those of the maximum LDH released (completely lysed) control. Data are means±s.e.m. (n=3). (C) 104 APL blasts were inoculated intravenously (i.v.) into FVB/N mice at day zero. […] Survival curves were analyzed with the Mantel-Cox test. […] Survival curves were analyzed with the Mantel-Cox test.
Release of lactate dehydrogenase (LDH) and ATP in the culture medium were assessed with the CytoTox 96 Non-Radioactive Cytotoxicity Assay and Enliten ATP Assay, respectively (Promega, Madison, WI, USA). HMGB1 release in the culture medium was assessed with the HMGB1 ELISA kit (IBL International, Hamburg, Germany). […]

[2] = Organ toxicity in peptide-treated APL mice; assay type: in vivo, FVB/N mice; details: either treatment schedule (data not shown)
Protocol: APL blasts (provided by Drs. M. Bishop and S. Kogan, UCSF, USA) origin from the spleen of mice bearing the human PML-RARA cDNA construct driven by a myeloid linage specific promoter (hMRP8) in the FVB/N inbred strain of mice. For amplification, cells (1×105 or 1×106) were suspended in PBS and transplanted by intravenous (i.v) tail injection (200 uL) into female syngeneic recipient mice (5-6 weeks old). Establishment of leukemia was assessed by a decrease in blood platelet counts approx. 3 weeks after graft. Spleen cells from a primary recipient were collected, washed, re-suspended in PBS and injected (10^4 cells/mouse; 200 uL) into the tail veins of male FVB/N mice (7-8 weeks old) for experiments. For direct treatment experiments, mice were treated daily or every other day (i.p) with normal saline, RT53 or RT39 at 2.4 mg/kg in normal saline starting from day 10 or day 20 for a total of 7 injections.
To explore the in vivo therapeutic potential of RT53 as a treatment of acute leukemia, we used a well-characterized preclinical APL model bearing the human PML-RARA oncogene which mimics human APL, both in its characteristics and its response to conventional therapeutic drugs such as ATRA and arsenic trioxide^9, 10. In this model, 100% of the syngeneic mice (FVB/N) transplanted with 104 primary recipients' spleen blasts developed an APL and succumbed within 30 days (FIG. 1C).

normal spleen cells = test: Electron microscopy ultrastructural analysis, normal spleen cells; assay type: cell-based, mouse; details: normal spleen cells exposed to RT53 (data not shown)
Protocol: Samples were fixed in 3% glutaraldehyde in phosphate buffer, pH 7.4 for 1 hour, washed, post-fixed with 1% osmium tetroxide in 0.1 M phosphate buffer and then gradually dehydrated in 70, 90 and 100% ethanol. After 10 min in a 1:2 mixture of epoxy propane and epoxy resin and 10 min in epon, samples were embedded in epoxy resin and polymerized at 60° C. for 24 h. After polymerisation, ultrathin sections of 90 nm were cut with an ultra-microtome (Reichert ultracut S), stained with uranyl acetate and Reynold's lead and observed with a transmission electron microscope (JEOL 1011). Acquisition was performed with a Gatan Orius 1000 CCD camera.
To test the antileukemic properties of RT53, we first exposed human all-trans retinoic acid (ATRA)-sensitive (NB4) and ATRA-resistant (UF-1) acute promyelocytic leukemia (APL) cells as well as mouse APL spleen blast cells derived from hMRP8-PML-RARA transgenic mice9 to increasing concentrations of RT53.

U2OS cells = test: Immunogenic cell death markers (HMGB1, ATP release) in U2OS cells; assay type: cell-based
Protocol: ((A) U2OS cells were left untreated or exposed to increasing concentrations of RT39 for 3 h. Extracellular HMGB1 was then measured in the culture supernatant by an ELISA assay. Data are means±s.e.m. (n=3). (B) U2OS cells were left untreated or exposed to increasing concentrations of RT39 for 3 h. Extracellular ATP was then measured in the culture supernatant using an ATP-bioluminescence assay. Data are means±s.e.m. (n=3).
Release of lactate dehydrogenase (LDH) and ATP in the culture medium were assessed with the CytoTox 96 Non-Radioactive Cytotoxicity Assay and Enliten ATP Assay, respectively (Promega, Madison, WI, USA). HMGB1 release in the culture medium was assessed with the HMGB1 ELISA kit (IBL International, Hamburg, Germany).

[3] = U2OS cells, increasing concentrations of RT39, 3 h

RQIKIWFQNRRMKWKKAKLNAEKLKDFKIRLQYFARGLQVYIRQLRLALQGKT [RT53]
cell death by LDH release in normal cells [1]: no cell death was detected
organ toxicity (macroscopic or microscopic) [2]: No organ toxicity
cellular integrity by ultrastructural analysis (normal spleen cells): No changes in cellular integrity or ruptured cells could be detected

RQIKIWFQNRRMKWKKLQYFARGLQVYIRQLRLALQGKT (Synthetic Fusion protein RT39) [fusion of penetratin with AAC-11 leucine-zipper derived peptide (377-399)]
extracellular ATP release (ATP-bioluminescence) (U2OS cells; [3]): triggers calreticulin exposure as well as the release of HMGB1 and ATP
extracellular HMGB1 release (ELISA) (U2OS cells; [3]): triggers calreticulin exposure as well as the release of HMGB1 and ATP
calreticulin exposure (U2OS cells; stated in figure title only, cells not given): triggers calreticulin exposure
